Here are results for two compounds from US20230233591A1, “METHOD FOR TREATING […]” (priority 2020, published 2023).

Structures can show the parent of a compound that is named as a salt. A value given as a limit tells only on which side of the number the result lay.

Data set [1] relates to CPXV. As to the kind of experiment: microbe, parasite or virus in culture. It counts as cell-based.
Data set [2] is described as follows: in vitro. To be noted: human.
Data set [3] deals with VACV. As to the kind of experiment: microbe, parasite or virus in culture. It counts as cell-based. The conditions noted are these: Orthopoxvirus vaccinia, Vero C1008, 24 h.
The subject of data set [4] is VACV. The data set is described as follows: microbe, parasite or virus in culture. It counts as cell-based. To be noted: Orthopoxvirus vaccinia, Huh-7, 24 h.
For data set [5], the system named is CPXV. As to the kind of experiment: microbe, parasite or virus in culture. It counts as cell-based. The conditions noted are these: Cowpox virus, Vero C1008, 24 h.
Data set [6] can be described thus: in vitro. The conditions noted are these: African green monkey.

One may read the IC50 as the concentration that inhibits the measured activity by half. `NC(=O)c1cn([C@@H]2O[C@H](CO)[C@@H](O)[C@H]2O)c2ncnc(N)c12` [Oya2, 4-amino-7-((2R,3R,4S,5R)-3,4-dihydroxy-5-(hydroxymethyl)tetrahydrofuran-2-yl)-7H-pyrrolo[2,3-d]pyrimidine-5-carboxamide hydrochloride] had an IC50 in data set [1] (hydrochloride) of 240 ± 10 nM.

Consider `NC(=O)c1cn([C@@H]2O[C@H](CO)[C@@H](O)[C@H]2O)c2ncnc(N)c12` [Oya1, 4-amino-7-((2R,3R,4S,5R)-3,4-dihydroxy-5-(hydroxymethyl)tetrahydrofuran-2-yl)-7H-pyrrolo[2,3-d]pyrimidine-5-carboxamide], for which the CC50 in data set [2] and in data set [6] was greater than 600 nM in each case. Moreover, the IC50 worked out at 20 ± 10 nM in data set [3]; 50 ± 10 nM in data set [4]; 200 ± 10 nM in data set [5]; 220 ± 10 nM in data set [1] (Cowpox virus, Huh-7, 24 h).
